Tests used:
[1] = tested on: infiltrating ductal carcinoma tissue; experiment: Ex vivo treatment of fresh breast tumor tissue; set-up: species or system human; details: 5 μM, 24 h post addition
MDA-MB-231 cells = experiment: Cell invasion assay (Boyden chamber Matrigel); format: cell-based, human; details: 1 μM pre-treatment 24 h, 20 h migration
Method: FIG. 12. YK5 affects the major hallmarks of cancer: inhibits proliferation and invasiveness and arrests cancer cells in the cell cycle. (a) The indicated cancer cells were incubated with increasing concentrations of inhibitors and growth over 72 h was assessed. Y-axis values below 0% represent cell death of the starting population. Drugs were assayed in triplicate. (b) Mice (n=5) bearing MDA-MB-468 subcutaneously (s.c.) xenografted tumors that reached a volume of approximately 100-200 mm^3, were administered i.t. YK5 or vehicle as described in Methods. Tumor volume (mm^3) was estimated from caliper measurements. (c) Cells were treated for 24 h with indicated concentrations of YK5. DNA content was analyzed by propidium iodide staining and flow cytometry (left), whereas proteins by western blotting (right). (d) Hsp70 client proteins isolated by YK55-beads from SKBr3 and MDA-MB-468 extracts (500 μg) were analyzed by western blotting. […] (e) MDA-MB-231 breast cancer cells were treated for 24 h with YK5 (1 μM) and protein extracts were subjected to immunoblotting (upper) or pre-treated for 24 h with vehicle or YK5, and viable cells able to migrate through Matrigel over a 20 h period were quantified and data graphed (lower). […]
Cell Invasion Assay. […] In summary, cells were stained with tryptan blue and counted manually with a hemacytometer. […] Cells in ten fields per membrane were counted at ×100 objective.

359 kinases = experiment: Kinase screen (scanMAX, Ambit); format: binding
Method: FIG. 6. YK5 inhibits core biochemical functions of Hsp70s and disrupts the Hsp90/Hsp70 interaction. a) Refolding of denatured luciferase by Hsc70 and DJA2 at 30° C. was measured for the indicated times in the presence of YK5 (100 μM) or vehicle (left), or at 60 min in the presence of indicated concentrations of YK5 (right). b) Hsc70 ATPase rates were measured for reactions at 30° C. with the indicated combinations of Hsc70 and co-chaperones in the presence of vehicle (DMSO) or YK5 (100 μM). ADP production was monitored by thin layer chromatography separation of radiolabeled ADP from ATP and phosphorimaging analysis (lower). The data are consistent with those obtained from multiple repeat experiments (n≧2). c,d) SKBr3 cells were treated for 24 h with vehicle or indicated concentrations of YK5 (c) or for the indicated times with YK5 (10 μM) (d). Proteins isolated with anti-Hsp90 and Hsp70s antibodies (IP: Hsp90 or Hsp70), or present in the cell extract (Lysate) were analyzed by WB. […] Proteins were applied to a native gel and analyzed by immunoblotting. […]
Kinase Screen. […] The kinase concentration in the eluates was measured by qPCR. KINOMEscan's selectivity score (S) is a quantitative measure of compound selectivity. It is calculated by dividing the number of kinases that bind to the compound by the total number of distinct kinases tested, excluding mutant variants. […]

## C=CC(=O)Nc1cc(N)nc(Sc2c(OC)nc(N3CCN(C)CC3)nc2OC)n1 [YK5, N-(6-amino-2-(4,6-dimethoxy-2-(4-methylpiperazin-1-yl)pyrimidin-5-ylthio)pyrimidin-4-yl)acrylamide]
[1]
  tumor cells dead or dying: 60%
MDA-MB-231 cells
  invasion through Matrigel: inhibited the ability of MDA-MB-231 cells to invade through Matrigel
359 kinases; 10 μM
  activity against 359 kinases: inert
359 kinases; TREEspot interaction map
  c-Met in the kinase screen: potential low affinity kinase hit
